Data set [1] concerns S. maltophilia 1237289. Kind of data set: Checkerboard fusidic acid (FD) and colistin sulfate (CS), MIC/FIC. The note with it: S. maltophilia 1237289, agent alone, CAMHB, 1*10^6 CFU/ml. The format is cell-based, Stenotrophomonas maltophilia. The procedure: (§1) Checkerboard assays between fusidic acid (FD) and colistin sulfate (CS) with a bacterial load 5(1-10)*10^5 CFU/ml in cationic adapted Mueller Hinton broth (CAMHB). • a. Antimicrobial stock solutions were prepared using sterile distilled water; • b. CS was added along the ordinate; FD was added along the abscissa to 96 well, flat bottom, polystyrene panels with no treatment. Colistin alone was tested in triplicates; • c. Serial 2-fold dilutions starting with 640 […] CS and 640 μg/ml FD were made; 15 μl volume of the serial dilutions were added for each agent to the appropriate wells—final volume at 30 μl; • d. For each agent tested alone an additional 15 μl media was added to the well. 30 μl were added in control wells where none of the agent was tested. The negative control well contains 150 μl media without any additions; • e. From an overnight bacterial culture in tryptic soy broth, 100 μL was added to 10 mL of fresh tryptic soy broth. This was then incubated at 37° C. for 1.5 hour at 180 rpm; • f. Bacteria in 120 μl CAMHB were added to each well (end concentration 5(1-10)*10^5 CFU/ml); • g. Plates were incubated at 37° C. in an ambient air incubator for 24 h • h. Turbidity at OD600 is determined with a plate photometer • i. By using a one-time inoculator 3 μl from each well of the 96-well plate were transferred to three blood agar plates. The plates were incubated over night at 37° C. in an ambient air incubator; • j. MIC values are defined as lowest concentration which restricts bacterial growth to OD600≤0.1; • k. MBC values were determined by visual reading the lowest concentration which inhibits 99.9% of the growth of bacteria in the wells; • l. Determination of the fractional inhibitory concentration (FIC) index and fractional bactericidal concentration (FBC) index and characterization of antimicrobial interactions was assessed;
(§2) FIC calculation was carried out as: (MIC of drug A, tested in combination)/(MIC of drug A, tested alone)+(MIC of drug B, tested in combination)/(MIC of drug B, tested alone). FBC calculation was carried out just as well;
(§3) Interactive categories were calculated from checkerboard analysis using MIC results from testing each agent alone and MIC results from the combination wells adjacent to the wells with growth in them.
(§4) Determination of the fractional inhibitory concentration (FIC) index and fractional bactericidal concentration (FBC) index and characterization of antimicrobial interactions was assessed:
(§5) (ii) Indifference; FIC/FBC>0.5 to <4.0
(§6) (iii) Antagonism; FIC/FBC≥4.0
e. Stenotrophomonas maltophilia 1237289 (IHMA), colistin resistant (CS 2/4-4/8-8/8)

Data set [2] concerns A. nosocomialis 1461911. Kind of data set: Checkerboard fusidic acid (FD) and colistin sulfate (CS), MIC/FIC and MBC/FBC. The format is cell-based, Acinetobacter nosocomialis. The note with it: A. nosocomialis 1461911, agent alone, CAMHB, 1*10^6 CFU/ml. As for the experimental part:
as §1, §2, §3, §4, §5, §6
b. Acinetobacter nosocomialis 1461911 (IHMA), colistin resistant (3xCS 4/8)

Data set [3] relates to A. guillouiae 1285286. Described as above. It counts as cell-based, Acinetobacter guillouiae. The conditions noted are these: agent alone, CAMHB, 1*10^6 CFU/ml. The procedure: as §1, §2, §3, §4, §5, §6
d. Acinetobacter guillouiae 1285286 (IHMA), colistin resistant (2xCS 2/4)

Data set [4] concerns S. maltophilia 1221783. Kind of data set: Checkerboard fusidic acid (FD) and colistin sulfate (CS), MIC/FIC. It counts as cell-based, Stenotrophomonas maltophilia. The note with it: agent alone, CAMHB, 1*10^6 CFU/ml, 24 h. The procedure: Checkerboard assays between fusidic acid (FD) and colistin sulfate (CS) with a bacterial load 5(1-10)*10^5 CFU/ml in cationic adapted Mueller Hinton broth (CAMHB). • a. Antimicrobial stock solutions were prepared using sterile distilled water; • b. CS was added along the ordinate; FD was added along the abscissa to 96 well, flat bottom, polystyrene panels with no treatment. Colistin alone was tested in triplicates; • c. Serial 2-fold dilutions starting with 640 […] CS and 640 μg/ml FD were made; 15 μl volume of the serial dilutions were added for each agent to the appropriate wells—final volume at 30 μl; • d. For each agent tested alone an additional 15 μl media was added to the well. 30 μl were added in control wells where none of the agent was tested. […] Turbidity at OD600 is determined with a plate photometer • i. […] Determination of the fractional inhibitory concentration (FIC) index and fractional bactericidal concentration (FBC) index and characterization of antimicrobial interactions was assessed; […]
as §3
Determination of the fractional inhibitory concentration (FIC) index and fractional bactericidal concentration (FBC) index and characterization of antimicrobial interactions was assessed: […]

In data set [5] the test system is A. junii 1397597. As to the kind of experiment: Checkerboard fusidic acid (FD) and colistin sulfate (CS), MIC/FIC and MBC/FBC. It counts as cell-based, Acinetobacter junii. The note with it: agent alone, CAMHB, 1*10^6 CFU/ml. The procedure: as §1, §2, §3, §4, §5, §6
a. Acinetobacter junii 1391597 (IHMA), colistin resistant (CS 2/2-2/8)

Data set [6] deals with A. haemolyticus 1655843. The data set is described as above. It counts as cell-based, Acinetobacter haemolyticus. The conditions noted are these: agent alone, CAMHB, 1*10^6 CFU/ml. The procedure: as §1, §2, §3, §4, §5, §6
c. Acinetobacter haemolyticus 1655843 (IHMA), colistin resistant (3xCS>16/>16-64/>64)

The subject of data set [7] is A. nosocomialis 1461911. Kind of data set: Checkerboard colistin sulphate (CS) plus teicoplanin (TP), MIC/FIC and MBC/FBC. It counts as cell-based, Acinetobacter nosocomialis. The note with it: agent alone, CAMHB, 5*10^5 CFU/ml. As for the experimental part:
(§7) Checkerboard analysis to determine minimal inhibitory concentration (MIC)/fractional inhibitory concentration (FIC) and minimal […] (MBC)/fractional […] (FBC) values of colistin sulphate (CS) plus teicoplanin (TP) for 6 Gram-negative strains with a bacterial load 5(1-10)*10^5 CFU/ml in a cation-adjusted Mueller-Hinton broth (CAMHB). • a. Antimicrobial stock solutions were prepared using sterile distilled water • b. CS was added along the ordinate; TP was added along the abscissa to 96 well, flat bottom, polystyrene panels with no treatment. Colistin alone was tested in triplicates. • c. Serial 2-fold dilutions starting with 640 μg/ml CS and 640 μg/ml TP were made; 15 μl volume of the serial dilutions were added for each agent to the appropriate wells; final volume at 30 μl • d. For each agent tested alone an additional 15 μl media was added to the well. 30 μl were added in control wells where none of the agent was tested. The negative control well contains 150 μl media without any additions • e. From an overnight bacterial culture in tryptic soy broth, 100 μL was added to 10 mL of fresh tryptic soy broth. This was then incubated at 37° C. for 1.5 hour at 180 rpm. • f. Bacteria in 120 μl CAMHB were added to each well (end concentration 5(1-10)*10^5 CFU/ml) • g. Plates were incubated at 37° C. in an ambient air incubator for 24 h • h. Turbidity at OD600 is determined with a plate photometer • i. By using a one-time inoculator 3 μl from each well of the 96-well plate were transferred to three blood agar plates. The plates were incubated over night at 37° C. in an ambient air incubator • j. MIC values are defined as lowest concentration which restricts bacterial growth to OD600 ≤0.1 • k. MBC values were determined by visual reading the lowest concentration which inhibits 99.9% of the growth of bacteria in the wells • l. Determination of the fractional inhibitory concentration (FIC) index and fractional bactericidal concentration (FBC) index and characterization of antimicrobial interactions was assessed […]
(§8) FIC calculation was carried out as: (MIC of drug A, tested in combination)/(MIC of drug A, tested alone)+(MIC of drug B, tested in combination)/(MIC of drug B, tested alone). FBC calculation was carried out just as well […]
(§9) Interactive categories were calculated from checkerboard analysis using MIC results from testing each agent alone and MIC results from the combination wells adjacent to the wells with growth in them […]
b. Indifference; FIC/FBC>0.5 to<4.0 c. Antagonism; FIC/FBC≥4.0 b. A. nosocomialis 1461911 (IHMA), colistin resistant

The subject of data set [8] is S. maltophilia 1221783. Described as above. It counts as cell-based, Stenotrophomonas maltophilia. The note with it: agent alone, CAMHB, 5*10^5 CFU/ml, 24 h. The procedure:
as §7, with “MIC values are defined as lowest concentration which restricts bacterial growth to OD600 ≤0.1 • k. MBC values were determined by visual reading the lowest concentration which inhibits 99.9% of the growth of bacteria in the wells • l.” left out
as §9

The conditions of data set [9]: in vivo; cited from earlier work.
Data set [10] has as its system A. guillouiae 1285286. As to the kind of experiment: Checkerboard colistin sulphate (CS) plus teicoplanin (TP), MIC/FIC and MBC/FBC. The format is cell-based, Acinetobacter guillouiae. The note with it: agent alone, CAMHB, 5*10^5 CFU/ml. The procedure:
as §7, §8, §9
b. Indifference; FIC/FBC>0.5 to<4.0 c. Antagonism; FIC/FBC≥4.0 d. A. guillouiae 1285286 (IHMA), colistin resistant

Data set [11] deals with A. junii 1397597. The description is as above. It counts as cell-based, Acinetobacter junii. The note with it: agent alone, CAMHB, 5*10^5 CFU/ml. As for the experimental part: as §7, with “MIC values are defined as lowest concentration which restricts bacterial growth to OD600 ≤0.1 • k. MBC values were determined by visual reading the lowest concentration which inhibits 99.9% of the growth of bacteria in the wells • l.” left out
as §9

The test system of data set [12] is S. maltophilia 1237289. The description is as above. It counts as cell-based, Stenotrophomonas maltophilia. The note with it: S. maltophilia 1237289, agent alone, CAMHB, 5*10^5 CFU/ml. As for the experimental part: as §7, with “Plates were incubated at 37° C. in an ambient air incubator for 24 h • h.” left out
as §8, §9
b. Indifference; FIC/FBC>0.5 to<4.0 c. Antagonism; FIC/FBC≥4.0 f. S. maltophilia 1237289 (IHMA), colistin resistant

The subject of data set [13] is A. haemolyticus 1655843. The data set is described as above. It counts as cell-based, Acinetobacter haemolyticus. The note with it: agent alone, CAMHB, 5*10^5 CFU/ml. The procedure:
as §7, §8, §9
b. Indifference; FIC/FBC>0.5 to<4.0 c. Antagonism; FIC/FBC≥4.0 c. A. haemolyticus 1655843 (IHMA), colistin resistant

Data set [14] deals with Methicillin-resistant Staphylococcus aureus (MRSA). As to the kind of experiment: Three-step decolonization protocol for MRSA in paediatric patients with cystic fibrosis. It counts as in vivo. The note with it: patients are to receive a further five-day intravenous treatment to increase the success rate. As for the experimental part: Methicillin-resistant Staphylococcus aureus (MRSA) is a bacterial pathogen in patients with cystic fibrosis (CF) although its clinical effects can be variable. In a three-step decolonization protocol for MRSA 15 paediatric patients are treated during a long follow-up period where 50% are successfully decolonized following one five-day course of i.v. Colistin and fusidic acid. To increase the success rate the patients are to receive a five-day intravenous teicoplanin treatment to clear MRSA colonization to 90-100%.

The mark [15] stands for this setting: after 48 h growth (values in brackets).

Turning to `CC(=O)O[C@H]1C[C@@]2(C)[C@@H](C[C@@H](O)[C@H]3[C@@]4(C)CC[C@@H](O)[C@@H](C)[C@@H]4CC[C@@]32C)/C1=C(\CCC=C(C)C)C(=O)O` [FD, fusidic acid], the MIC is given as over 64 mg/1l in data set [1] (24 h); “(>64) mg/1l” in data set [1] (setting [15]); over 64 mg/1l in data set [2] (24 h); 16 mg/1l in data set [3] (A. guillouiae 1285286, 24 h); 64 mg/1l in data set [4]; 32 mg/1l in [5] (A. junii 1397597, 24 h). Besides, the MIC in data set [6] (A. haemolyticus 1655843, 24 h) turned out to be 32 mg/1l. Further, the minimal bactericidal concentration (MBC) (as a rule, the lowest tested concentration that kills the bacteria rather than only halting them) in data set [2] (Acinetobacter nosocomialis) was over 64 µg/mL; in data set [3] (Acinetobacter guillouiae, 1285286, A. guillouiae, read-out: MBC), over 64 µg/mL; in [5] (Acinetobacter junii, 1397597, A. junii 1397597) it was 64 µg/mL; in data set [6] (Acinetobacter haemolyticus, 1655843, A. haemolyticus 1655843), 64 µg/mL.
Regarding teicoplanin [TP], the MIC was over 64 µg/mL in data set [7] (A. nosocomialis 1461911, 24 h); over 64 µg/mL in data set [8]; over 64 µg/mL in data set [10] (A. guillouiae 1285286, 24 h); over 64 µg/mL in data set [11] (A. junii 1397597, 24 h); over 64 µg/mL in data set [12] (24 h); “(>64) mg/l” in data set [12] (setting [15]). Also, the MIC in data set [13] (A. haemolyticus 1655843, 24 h) is over 64 µg/mL. Further, the MBC in data set [7] (A. nosocomialis), in data set [10] (A. guillouiae), in [11] (A. junii) and in data set [13] (A. haemolyticus) was over 64 µg/mL in each case. For the same compound, the “terminal half-life, mean (±SD)” value in [9] is listed as 157 (±93) h. In [9], the “terminal half-life, median (range)” value is reported as 168 (111-278) h. For the same compound, the “clear MRSA colonization to” value in [14] is recorded as 90-100%.
